In US12673022B2, “Drug delivery system using solution” (Kyoto University, priority 2018, dated 2026):

Tested on: EGFP reporter cells (C2C12 cells)
Experiment: EGFP-SSA assay: uptake of Cas9 protein/gRNA complex into cells (EGFP positive rate)
Format: cell-based, mouse
Details: Example 1; compound 250.0 mM; reaction solution 1 (550 mM sodium chloride, 1 mM HEPES, Cas9 protein/gRNA), 30 minutes
Text: EGFP-SSA assay: an abbreviation of EGFP-single strand annealing assay. The reporter cassette shown in FIG. 1 is inserted in EGFP reporter cells. In the middle of the EGFP sequence of the cassette, MmDMD-Ex51 sequence is inserted. Since the presence of MmDMD-Ex51 sequence, by which EGFP ORF is divided, EGFP protein is not usually translated. However, when target sequence of MmDMD-Ex51 is cleaved by Cas9 protein/gRNA complex, the upstream region (EG part) and the downstream region (FP part) of EGFP ORF are annealed via a homology area into a single strand, with the result that a full-length EGFP ORF emerges to produce EGFP protein. Based on this principle, the ratio of the number of cells producing EGFP is checked by the EGFP-SSA assay. In this manner, the amount of Cas9 protein/gRNA complex delivered to cells can be predicted.
(§1) Cas9 protein (0.4 μg), tracrRNA (34.18 ng), MmDmd Ex51 crRNA (29.48 ng), a 1 M HEPES buffer (0.05 μL) and a 5 M aqueous sodium chloride solution (5.5 μL) were mixed and diluted with UltraPure DNase/RNase-Free Distilled Water up to a liquid volume of 37.5 μL so as to obtain final concentrations: 8 ng/μL Cas9 protein, 0.68 ng/μL tracrRNA, 0.59 ng/μL MmDmd Ex51 crRNA, 1 mM HEPES, 550 mM sodium chloride, and 250 mM compound. To this solution, a 1000 mM compound solution (12.5 μL) was added and the solution mixture was incubated at normal temperature for 15 minutes.
as §1, with “buffer (2.5” for “buffer (0.05”, “solution (4.85” for “solution (5.5”, “crRNA, 50” for “crRNA, 1”, “HEPES, 485” for “HEPES, 550”, “minutes. Note that, in the cases where the final concentrations of the compound are 0.69 mM, 25 mM, 100 mM, 125 mM, 160 mM, 200 mM and 500 mM, the compound stock solution was diluted with UltraPure DNase/RNase-Free Distilled Water up to concentrations of 2.76 mM, 100 mM, 400 mM, 500 mM, 640 mM, 800 mM and 2000 mM, respectively, and then, added. […]” for “minutes.”
Cas9 protein (2.0 μg), tracrRNA (170.9 ng), MmDmd Ex51 crRNA (147.4 ng), a 1 M HEPES buffer (12.5 μL), a 5 M aqueous sodium chloride solution (18.35 μL) and a 1 M aqueous GABA solution (62.5 μL) were mixed, diluted with UltraPure DNase/RNase-Free Distilled Water up to a liquid volume of 250 μL so as to obtain final concentrations: 8 ng/μL Cas9 protein, 0.68 ng/μL tracrRNA, 0.59 ng/μL MmDmd Ex51 crRNA, 50 mM HEPES, 250 mM GABA and 367 mM sodium chloride, and incubated at normal temperature for 15 minutes. Note that the addition amount of the 5 M aqueous sodium chloride solution was changed to 24.25 μL in the case of 485 mM sodium chloride and the addition amount was changed to 27.5 μL in the case of 550 mM sodium chloride, respectively.

NC(=O)N[C@@H](CC(=O)O)C(=O)O [N-Carbamyl-L-aspartic acid]
Compound activity: EGFP positive rate (%): 8.53%
